Laboratory results from PubChem BioAssay AID1963875 (Molecular Pharmacology Branch, DTP, NCI, 2024).

Tested on: KRAS-mutant PDC complex spheroid viability
Test: Anticancer human tumor 186277-243-T-J2-PDC patient-derived colon adenocarcinoma cell line growth inhibition [KRAS2]
Conditions: for viability, T/C: stronger effect = lower value
Outline: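 Combination screen of spheroid viability in tumor-cell co-cultures with endothelial (HUVEC) and mesenchymal stem cell stroma. Each agent was tested in half-log dilutions, topping at clinical Cmax or at 10 microM without a known Cmax.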

[1] = curve of first compound, second compound 0.1 µM
[2] = curve of first compound, second compound 0.316 µM
[3] = curve of first compound, second compound 1 µM
[4] = curve of first compound, second compound 3.16 µM
[5] = curve of first compound, second compound 10 µM
[6] = second compound 0.1 µM, first compound 0.0316 µM
[7] = second compound 0.1 µM, first compound 0.1 µM
[8] = second compound 0.1 µM, first compound 0.316 µM
[9] = second compound 0.1 µM, first compound 1 µM
[10] = second compound 0.1 µM, first compound 3.16 µM
[11] = second compound 0.1 µM, first compound 10 µM
[12] = second compound 0.316 µM, first compound 0.0316 µM
[13] = second compound 0.316 µM, first compound 0.1 µM
[14] = second compound 0.316 µM, first compound 0.316 µM
[15] = second compound 0.316 µM, first compound 1 µM
[16] = second compound 0.316 µM, first compound 3.16 µM
[17] = second compound 0.316 µM, first compound 10 µM
[18] = second compound 1 µM, first compound 0.0316 µM
[19] = second compound 1 µM, first compound 0.1 µM
[20] = second compound 1 µM, first compound 0.316 µM
[21] = second compound 1 µM, first compound 1 µM
[22] = second compound 1 µM, first compound 3.16 µM
[23] = second compound 1 µM, first compound 10 µM
[24] = second compound 3.16 µM, first compound 0.0316 µM
[25] = second compound 3.16 µM, first compound 0.1 µM
[26] = second compound 3.16 µM, first compound 0.316 µM
[27] = second compound 3.16 µM, first compound 1 µM
[28] = second compound 3.16 µM, first compound 3.16 µM
[29] = second compound 3.16 µM, first compound 10 µM
[30] = second compound 10 µM, first compound 0.0316 µM
[31] = second compound 10 µM, first compound 0.1 µM
[32] = second compound 10 µM, first compound 0.316 µM
[33] = second compound 10 µM, first compound 1 µM
[34] = second compound 10 µM, first compound 3.16 µM
[35] = second compound 10 µM, first compound 10 µM
[36] = second compound 0.1 µM, first compound 0.000316 µM
[37] = second compound 0.1 µM, first compound 0.001 µM
[38] = second compound 0.1 µM, first compound 0.00316 µM
[39] = second compound 0.1 µM, first compound 0.01 µM
[40] = second compound 0.316 µM, first compound 0.000316 µM
[41] = second compound 0.316 µM, first compound 0.001 µM
[42] = second compound 0.316 µM, first compound 0.00316 µM
[43] = second compound 0.316 µM, first compound 0.01 µM
[44] = second compound 1 µM, first compound 0.000316 µM
[45] = second compound 1 µM, first compound 0.001 µM
[46] = second compound 1 µM, first compound 0.00316 µM
[47] = second compound 1 µM, first compound 0.01 µM
[48] = second compound 3.16 µM, first compound 0.000316 µM
[49] = second compound 3.16 µM, first compound 0.001 µM
[50] = second compound 3.16 µM, first compound 0.00316 µM
[51] = second compound 3.16 µM, first compound 0.01 µM
[52] = second compound 10 µM, first compound 0.000316 µM
[53] = second compound 10 µM, first compound 0.001 µM
[54] = second compound 10 µM, first compound 0.00316 µM
[55] = second compound 10 µM, first compound 0.01 µM
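Wherever viability, T/C is given: viability read after seven days of compound exposure; 100% = DMSO vehicle-treated spheroids so lower means less viable.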

`CC1(C)CCC(CN2CCN(c3ccc(C(=O)NS(=O)(=O)c4ccc(NCC5CCOCC5)c([N+](=O)[O-])c4)c(Oc4cnc5[nH]ccc5c4)c3)CC2)=C(c2ccc(Cl)cc2)C1` + CNCc1ccccc1-c1csc(C(C)Nc2nc(C)nc3cc(OC)c(OC)cc23)c1 showed an IC50 [1] of 2130 nM, an IC50 [2] of 2260 nM and an IC50 [3] of 2160 nM. It also gave an IC50 [4] of 90.7 nM, an IC50 [5] of less than 31.6 nM and a viability, T/C [6] of 120%. The viability, T/C [7] was 102%, the viability, T/C [8] was 107% and the viability, T/C [9] was 110%. It also gave a viability, T/C [10] of 19.2%, a viability, T/C [11] of 1.52% and a viability, T/C [12] of 115%. For the same molecule, the viability, T/C [13] was 117%, the viability, T/C [14] was 117% and the viability, T/C [15] was 119%. The viability, T/C [16] was 22.1%, the viability, T/C [17] was 1.59% and the viability, T/C [18] was 126%. For the same molecule, the viability, T/C [19] was 125%, the viability, T/C [20] was 112% and the viability, T/C [21] was 116%. It also gave a viability, T/C [22] of 17.2%, a viability, T/C [23] of 0.88% and a viability, T/C [24] of 80.2%. It also gave a viability, T/C [25] of 44.8%, a viability, T/C [26] of 29.2% and a viability, T/C [27] of 7.62%. For the same molecule, the viability, T/C [28] was 0.22%, the viability, T/C [29] was 0.13% and the viability, T/C [30] was 0.17%. It also gave a viability, T/C [31] of 0.16%, a viability, T/C [32] of 0.14% and a viability, T/C [33] of 0.12%. For the same molecule, the viability, T/C [34] was 0.12% and the viability, T/C [35] was 0.2%.

For `O=C(c1cc(Cc2n[nH]c(=O)c3ccccc23)ccc1F)N1CCN(C(=O)C2CC2)CC1` + CNCc1ccccc1-c1csc(C(C)Nc2nc(C)nc3cc(OC)c(OC)cc23)c1, the IC50 [1] was 6450 nM, the IC50 [2] was 6160 nM and the IC50 [3] was 5690 nM. The IC50 [4] was 639 nM, the IC50 [5] was less than 31.6 nM and the viability, T/C [6] was 110%. For the same molecule, the viability, T/C [7] was 101%, the viability, T/C [8] was 95.6% and the viability, T/C [9] was 114%. For the same molecule, the viability, T/C [10] was 78.6%, the viability, T/C [11] was 32.4% and the viability, T/C [12] was 107%. It also gave a viability, T/C [13] of 102%, a viability, T/C [14] of 111% and a viability, T/C [15] of 106%. For the same molecule, the viability, T/C [16] was 73.8%, the viability, T/C [17] was 32.7% and the viability, T/C [18] was 104%. The viability, T/C [19] was 97.2%, the viability, T/C [20] was 108% and the viability, T/C [21] was 104%. The viability, T/C [22] was 66.9%, the viability, T/C [23] was 33.8% and the viability, T/C [24] was 94.8%. It also gave a viability, T/C [25] of 107%, a viability, T/C [26] of 94.1% and a viability, T/C [27] of 16.2%. The viability, T/C [28] was 45.6%, the viability, T/C [29] was 3.95% and the viability, T/C [30] was 0.19%. For the same molecule, the viability, T/C [31] was 0.21%, the viability, T/C [32] was 0.19% and the viability, T/C [33] was 0.14%. The viability, T/C [34] was 0.14% and the viability, T/C [35] was 0.19%.

Molecule `Cn1ncnc1[C@H]1c2n[nH]c(=O)c3cc(F)cc(c23)N[C@@H]1c1ccc(F)cc1` + CC1OCC2(CCN(c3cnc(Sc4ccnc(N)c4Cl)c(N)n3)CC2)C1N has an IC50 [1] greater than 100 nM, an IC50 [2] greater than 100 nM and an IC50 [3] of 89.2 nM. For the same molecule, the IC50 [4] was 18.7 nM, the IC50 [5] was 4.16 nM and the viability, T/C [36] was 107%. It also gave a viability, T/C [37] of 116%, a viability, T/C [38] of 110% and a viability, T/C [39] of 90.5%. For the same molecule, the viability, T/C [6] was 84.2%, the viability, T/C [7] was 62.3% and the viability, T/C [40] was 126%. For the same molecule, the viability, T/C [41] was 120%, the viability, T/C [42] was 104% and the viability, T/C [43] was 84.3%. For the same molecule, the viability, T/C [12] was 76.8%, the viability, T/C [13] was 58.1% and the viability, T/C [44] was 119%. For the same molecule, the viability, T/C [45] was 103%, the viability, T/C [46] was 89.4% and the viability, T/C [47] was 71.4%. The viability, T/C [18] was 62.4%, the viability, T/C [19] was 50.6% and the viability, T/C [48] was 81.9%. For the same molecule, the viability, T/C [49] was 85.6%, the viability, T/C [50] was 76.3% and the viability, T/C [51] was 60.2%. For the same molecule, the viability, T/C [24] was 41.5%, the viability, T/C [25] was 36% and the viability, T/C [52] was 66.7%. For the same molecule, the viability, T/C [53] was 68.4%, the viability, T/C [54] was 49.4% and the viability, T/C [55] was 41.3%. For the same molecule, the viability, T/C [30] was 31.5% and the viability, T/C [31] was 25.4%.

With `CC(C)n1nc(-c2ccc3oc(N)nc3c2)c2c(N)ncnc21` the viability, T/C (compound 0.000316 µM) was 95.7% [middle of 5 runs], the viability, T/C (compound 0.001 µM) was 98.8% [middle of 5 runs] and the viability, T/C (compound 0.00316 µM) was 77.8% [middle of 5 runs]. The viability, T/C (compound 0.01 µM) was 56.7% [middle of 5 runs], the viability, T/C (compound 0.0316 µM) was 32.1% [middle of 5 runs] and the viability, T/C (compound 0.1 µM) was 19.2% [middle of 5 runs]. The IC50 (curve of compound) was 14.1 nM [middle of 5 runs].

In the case of `CC(C)n1nc(-c2ccc3oc(N)nc3c2)c2c(N)ncnc21` + CC1OCC2(CCN(c3cnc(Sc4ccnc(N)c4Cl)c(N)n3)CC2)C1N, the IC50 [1] is reported as 11.9 nM, the IC50 [2] is reported as 12.7 nM and the IC50 [3] is reported as 8.7 nM. The IC50 [4] was 4.98 nM, the IC50 [5] was 1.26 nM and the viability, T/C [36] was 107%. The viability, T/C [37] was 101%, the viability, T/C [38] was 85.8% and the viability, T/C [39] was 52.1%. For the same molecule, the viability, T/C [6] was 30%, the viability, T/C [7] was 16.1% and the viability, T/C [40] was 113%. The viability, T/C [41] was 100%, the viability, T/C [42] was 76.8% and the viability, T/C [43] was 57%. The viability, T/C [12] was 30.6%, the viability, T/C [13] was 15.3% and the viability, T/C [44] was 103%. It also gave a viability, T/C [45] of 89.7%, a viability, T/C [46] of 67.5% and a viability, T/C [47] of 49.9%. For the same molecule, the viability, T/C [18] was 25.3%, the viability, T/C [19] was 12.9% and the viability, T/C [48] was 83.8%. It also gave a viability, T/C [49] of 73.4%, a viability, T/C [50] of 55.9% and a viability, T/C [51] of 39.5%. It also gave a viability, T/C [24] of 22.6%, a viability, T/C [25] of 7.43% and a viability, T/C [52] of 57.4%. For the same molecule, the viability, T/C [53] was 58.8%, the viability, T/C [54] was 33.7% and the viability, T/C [55] was 25.3%. For the same molecule, the viability, T/C [30] was 13.8% and the viability, T/C [31] was 5.7%.

With `CC1(C)CCC(CN2CCN(c3ccc(C(=O)NS(=O)(=O)c4ccc(NCC5CCOCC5)c([N+](=O)[O-])c4)c(Oc4cnc5[nH]ccc5c4)c3)CC2)=C(c2ccc(Cl)cc2)C1` + C=CC(=O)N1CCN(c2nc(=O)n(-c3c(C)ccnc3C(C)C)c3nc(-c4c(O)cccc4F)c(F)cc23)C(C)C1 the IC50 [1] was 1890 nM, the IC50 [2] was 2100 nM and the IC50 [3] was 1950 nM. For the same molecule, the IC50 [4] was 1690 nM, the IC50 [5] was 373 nM and the viability, T/C [6] was 107%. It also gave a viability, T/C [7] of 89.6%, a viability, T/C [8] of 90.8% and a viability, T/C [9] of 108%. The viability, T/C [10] was 10.6%, the viability, T/C [11] was 0.45% and the viability, T/C [12] was 97.7%. The viability, T/C [13] was 104%, the viability, T/C [14] was 102% and the viability, T/C [15] was 98.5%. For the same molecule, the viability, T/C [16] was 23.3%, the viability, T/C [17] was 1.48% and the viability, T/C [18] was 97.8%. For the same molecule, the viability, T/C [19] was 97.9%, the viability, T/C [20] was 94.1% and the viability, T/C [21] was 106%. For the same molecule, the viability, T/C [22] was 14.3%, the viability, T/C [23] was 0.49% and the viability, T/C [24] was 99.9%. It also gave a viability, T/C [25] of 110%, a viability, T/C [26] of 96.7% and a viability, T/C [27] of 85%. For the same molecule, the viability, T/C [28] was 8.01%, the viability, T/C [29] was 0.76% and the viability, T/C [30] was 61.1%. The viability, T/C [31] was 69.4%, the viability, T/C [32] was 48.6% and the viability, T/C [33] was 32%. For the same molecule, the viability, T/C [34] was 1.91% and the viability, T/C [35] was 0.62%.
